Drawing on patent publication US20230023559A1, “ARYLMETHYLENE HETEROCYCLIC COMPOUNDS AS KV1.3 POTASSIUM SHAKER CHANNEL BLOCKERS” (D. E. Shaw Research, LLC, priority 2019, published 2023), this text covers IC50 for 31 compounds.

The target in experiment [1] is hERG channel (Homo sapiens, UniProt Q12809). Kind of experiment: hERG electrophysiology, automated whole-cell patch clamp (Patchliner).
Experiment [2] deals with T1, Kv1.3 potassium channel (Homo sapiens, UniProt P22001).
T1 construct: expressed in transfected cells
T1 sequence (P22001 whole entry): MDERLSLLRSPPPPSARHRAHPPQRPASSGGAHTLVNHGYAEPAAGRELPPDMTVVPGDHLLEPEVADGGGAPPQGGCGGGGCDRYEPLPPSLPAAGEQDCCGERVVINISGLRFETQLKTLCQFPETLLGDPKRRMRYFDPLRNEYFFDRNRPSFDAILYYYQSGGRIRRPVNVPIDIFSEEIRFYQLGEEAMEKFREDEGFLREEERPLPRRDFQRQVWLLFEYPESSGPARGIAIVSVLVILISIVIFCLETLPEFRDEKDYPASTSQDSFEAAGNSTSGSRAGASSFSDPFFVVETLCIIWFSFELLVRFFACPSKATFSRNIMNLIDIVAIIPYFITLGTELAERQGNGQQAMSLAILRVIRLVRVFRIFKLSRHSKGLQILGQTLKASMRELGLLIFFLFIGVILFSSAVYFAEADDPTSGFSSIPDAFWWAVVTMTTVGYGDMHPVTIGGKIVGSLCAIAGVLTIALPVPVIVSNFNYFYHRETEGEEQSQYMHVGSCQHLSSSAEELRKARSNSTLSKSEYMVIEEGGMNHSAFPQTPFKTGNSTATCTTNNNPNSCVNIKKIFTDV
The experiment is described as follows: Kv1.3 potassium channel blocker activity, automated whole-cell patch clamp (Patchliner). The experiment is classed as cell-based. The conditions noted are these: CHO-K1 cells stably expressing Kv1.3; whole cell current inhibition; read-out: Kv1.3_IC50. The method, boiled down:
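Peak-current block was recorded on stable Kv1.3 CHO-K1 cells by automated patch clamp, stepping from a −90 mV holding potential to +40 mV for 100 ms at 0.1 Hz with 10 s breaks between trains. Online P/4 leak subtraction, 10 kHz sampling; compound exposure under 10 s per train.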

Sequence of hERG channel (Q12809 whole entry): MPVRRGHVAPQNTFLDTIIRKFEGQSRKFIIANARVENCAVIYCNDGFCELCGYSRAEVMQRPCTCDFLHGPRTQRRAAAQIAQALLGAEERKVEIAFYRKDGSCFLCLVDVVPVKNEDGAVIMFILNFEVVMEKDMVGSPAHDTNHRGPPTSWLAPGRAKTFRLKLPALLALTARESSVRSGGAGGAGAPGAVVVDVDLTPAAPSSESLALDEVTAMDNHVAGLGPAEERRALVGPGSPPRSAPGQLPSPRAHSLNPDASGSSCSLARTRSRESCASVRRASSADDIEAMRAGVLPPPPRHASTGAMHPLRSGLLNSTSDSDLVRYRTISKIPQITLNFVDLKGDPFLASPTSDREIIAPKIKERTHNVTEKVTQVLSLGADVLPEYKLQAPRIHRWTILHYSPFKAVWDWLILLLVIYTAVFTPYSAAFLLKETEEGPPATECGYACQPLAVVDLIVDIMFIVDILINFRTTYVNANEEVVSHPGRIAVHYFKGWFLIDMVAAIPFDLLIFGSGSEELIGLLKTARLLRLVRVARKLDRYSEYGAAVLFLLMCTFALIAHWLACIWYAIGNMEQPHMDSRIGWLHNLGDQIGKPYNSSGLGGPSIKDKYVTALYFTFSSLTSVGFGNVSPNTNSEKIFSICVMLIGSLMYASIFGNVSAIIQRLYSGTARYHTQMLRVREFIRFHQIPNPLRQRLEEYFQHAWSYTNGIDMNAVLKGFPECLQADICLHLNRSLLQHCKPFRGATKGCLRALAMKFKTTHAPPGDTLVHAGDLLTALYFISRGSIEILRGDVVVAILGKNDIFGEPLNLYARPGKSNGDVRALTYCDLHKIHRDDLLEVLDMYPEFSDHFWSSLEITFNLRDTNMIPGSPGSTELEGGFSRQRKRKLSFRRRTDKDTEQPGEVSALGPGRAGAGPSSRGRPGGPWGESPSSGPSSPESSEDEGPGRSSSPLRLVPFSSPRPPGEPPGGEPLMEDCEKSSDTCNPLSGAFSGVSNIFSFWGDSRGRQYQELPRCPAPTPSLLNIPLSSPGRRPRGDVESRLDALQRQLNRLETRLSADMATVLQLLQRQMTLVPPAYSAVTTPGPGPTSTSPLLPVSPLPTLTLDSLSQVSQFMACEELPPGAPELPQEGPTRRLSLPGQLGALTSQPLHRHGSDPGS

`Cc1cc(O)c([C@H](N)C2CCN(C(=O)c3cnc4nccn4c3)CC2)cc1Cl` [Compound 240, 2-[(R)-amino(1-[imidazo[1,2-a]pyrimidine-6-carbonyl]piperidin-4-yl)methyl]-4-chloro-5-methylphenol Trifluoroacetic Acid]: the concentration for half-maximal inhibition (IC50) in experiment [1] is over 30 µM; in experiment [2], under 0.5 µM.
For `N[C@@H](c1cc(Cl)c(Cl)cc1O)C1CCN(C(=O)[C@H]2C[C@H](O)C2)CC1` [Compound 139, 2-[(R)-amino([1-[(1R,3R)-3-hydroxycyclo-butanecarbonyl]piperidin-4-yl])methyl]-4,5-dichlorophenol trifluoroacetic acid] the same measures were over 30 µM and under 0.5 µM.
For `N[C@@H](c1cc(Cl)c(Cl)cc1O)C1CCN(C(=O)c2cnc(=O)[nH]c2)CC1` [Compound 277, 5-[4-[(R)-amino(4,5-dichloro-2-hydroxyphenyl)methyl]piperidine-1-carbonyl]-1H-pyrimidin-2-one trifluoroacetic acid] the same measures were over 30 µM and under 0.5 µM.
For `C[C@@H](O)[C@H](O)C(=O)N1CCC([C@@H](N)c2cc(Cl)c(Cl)cc2O)CC1` [Compound 208, 1-(4-((R)-amino(4,5-dichloro-2-hydroxyphenyl)methyl)piperidin-1-yl)-2,3-dihydroxybutan-1-one trifluoroacetic acid] the same measures were over 30 µM and under 0.5 µM.
As to `C[C@H](N)C(=O)N1CCC(C(N)c2cc(Cl)c(Cl)cc2O)CC1` (stereo partly drawn) [Compound 50, (2S)-2-amino-1-(4-(amino(4,5-dichloro-2-hydroxyphenyl)methyl)piperidin-1-yl)propan-1-one trifluoroacetic acid], the IC50 was over 30 µM in experiment [1] and under 0.5 µM in experiment [2].
For `CC(=O)N1CCC([C@H](N)c2cc(Cl)c(Cl)cc2O)CC1` (single isomer, unassigned) [Compound 19] the same measures were under 30 µM and under 10 µM.
For `Cc1cc(O)c([C@H](N)C2CCN(C(=O)C3CNC3)CC2)cc1Cl` [Compound 235, 2-[(R)-amino[1-(azetidine-3-carbonyl)piperidin-4-yl]methyl]-4-chloro-5-methylphenol trifluoroacetic acid], in that order: over 30 µM and under 0.5 µM.
Consider `CC(=O)N1CCC(C(N)c2cc(Cl)c(Cl)cc2O)CC1` (centres unmarked) [Compound 9, 1-(4-(amino(4,5-dichloro-2-hydroxyphenyl)methyl)piperidin-1-yl)ethanone], for which the IC50 in experiment [1] was over 30 µM; in experiment [2], under 10 µM.
For `O=C([C@@H]1CCNC1)N1CCC([C@@H](O)c2c(O)ccc(Cl)c2Cl)CC1` (single isomer, unassigned) [Compound 123, Trifluoroacetic Acid], in that order: over 30 µM and under 0.5 µM.
For `CC(=O)N1CC(C(=O)N2CCC([C@@H](N)c3cc(Cl)c(Cl)cc3O)CC2)C1` [Compound 200, 1-(3-[4-[(R)-amino(4,5-dichloro-2-hydroxyphenyl)methyl]piperidine-1-carbonyl]azetidin-1-yl)ethan-1-one] the same measures were over 30 µM and under 10 µM.
Regarding `N[C@@H](c1cc(Cl)c(Cl)cc1O)C1CCN(C(=O)[C@@H]2CCN2)CC1` [Compound 100, 2-[(R)-amino([1-[(2S)-azetidine-2-carbonyl]piperidin-4-yl])methyl]-4,5-dichlorophenol], the values for the IC50 in experiment [1] and in experiment [2] were over 30 µM and under 0.5 µM, respectively.
For `O=C([C@@H]1CCNC1)N1CCC([C@H](O)c2cc(Cl)c(Cl)cc2O)CC1` (single isomer, unassigned) [Compound 115] the same measures were over 30 µM and under 0.5 µM.
For `N[C@@H](c1cc(Cl)c(Cl)cc1O)C1CCN(C(=O)C2(O)COC2)CC1` [Compound 143, 3-[4-[(R)-amino(4,5-dichloro-2-hydroxyphenyl)methyl]piperidine-1-carbonyl]oxetan-3-ol] the same measures were over 30 µM and under 10 µM.
For `Cc1cc(O)c([C@H](N)C2CCN(C(=O)C3CCS(=O)(=O)CC3)CC2)cc1Cl` [Compound 247, (R)-(4-(amino(5-chloro-2-hydroxy-4-methylphenyl)methyl)piperidin-1-yl)(1,1-dioxidotetrahydro-2H-thiopyran-4-yl)methanone trifluoroacetic acid] the same measures were over 30 µM and under 0.5 µM.
Regarding `O=C([C@@H]1CCNC1)N1CCC(Cc2cc(Cl)c(Cl)cc2O)CC1` [Compound 111, 4,5-dichloro-2-([1-[(3R)-pyrrolidine-3-carbonyl]piperidin-4-yl]methyl)phenol Trifluoroacetic Acid], the IC50 in experiment [1] is under 30 µM; in experiment [2], under 0.5 µM.
Consider `C[C@H](O)C(=O)N1CCC([C@@H](N)c2cc(Cl)c(Cl)cc2O)CC1` [Compound 102, (S)-1-(4-((R)-amino(4,5-dichloro-2-hydroxyphenyl)methyl)piperidin-1-yl)-2-hydroxypropan-1-one], for which the half-inhibitory concentration (IC50) was over 30 µM in experiment [1] and under 0.5 µM in experiment [2].
For `NC(c1cc(Cl)c(Cl)cc1O)C1CCN(CC2CC2)CC1` (centres unmarked) [Compound 51, 2-[amino[1-(cyclopropylmethyl)piperidin-4-yl]methyl]-4,5-dichlorophenol Trifluoroacetic Acid], in that order: over 30 µM and under 10 µM.
On to `N[C@@H](c1cc(Cl)c(Cl)cc1O)C1CCN(S(=O)(=O)[C@H]2CCNC2)CC1` (single isomer, unassigned; isomer 2) [Compound 118], for which the half-inhibitory concentration (IC50) was over 30 µM in experiment [1] and under 0.5 µM in experiment [2].
For `NC(=O)C(=O)N1CCC([C@@H](N)c2cc(Cl)c(Cl)cc2O)CC1` [Compound 206, 2-[4-[(R)-amino(4,5-dichloro-2-hydroxyphenyl)methyl]piperidin-1-yl]-2-oxoacetamide trifluoroacetic acid], in that order: over 30 µM and under 0.5 µM.
For `N[C@@H](CO)C(=O)N1CCC([C@@H](N)c2cc(Cl)c(Cl)cc2O)CC1` [Compound 167, (2S)-2-amino-1-[4-[(R)-amino(4,5-dichloro-2-hydroxyphenyl)methyl]piperidin-1-yl]-3-hydroxypropan-1-one] the same measures were over 30 µM and under 0.5 µM.
For `N[C@@H](c1cc(Cl)c(Cl)cc1O)C1CCN(C(=O)C23CC(O)(C2)C3)CC1` [Compound 160, 3-[4-[(R)-amino(4,5-dichloro-2-hydroxyphenyl)methyl]piperidine-1-carbonyl]bicyclo [1.1.1]pentan-1-ol trifluoroacetic acid] the same measures were under 30 µM and under 10 µM.
In the case of `Cn1ccc(N2CCC([C@@H](N)c3cc(Cl)c(Cl)cc3O)CC2)cc1=O` [Compound 297, 4-[4-[(R)-amino(4,5-dichloro-2-hydroxyphenyl)methyl]piperidin-1-yl]-1-methylpyridin-2-one], the IC50 in experiment [1] was under 30 µM; in experiment [2], under 0.5 µM.
On to `N[C@@H](c1cc(Cl)c(Cl)cc1O)C1CCN(C(=O)[C@@H]2CC[C@H](O)C2)CC1` (single isomer, unassigned; isomer 2) [Compound 179], for which the figures for the IC50 in experiment [1] and in experiment [2] were under 30 µM and under 0.5 µM, respectively.
In the case of `Cc1cc(O)c([C@H](N)C2CCN(C(=O)c3ccc(CO)nc3)CC2)cc1Cl` [Compound 248, 2-[(R)-amino([1-[6-(hydroxymethyl)pyridine-3-carbonyl]piperidin-4-yl])methyl]-4-chloro-5-methylphenol], the IC50 in experiment [1] was over 30 µM; in experiment [2], under 0.5 µM.
For `Cn1cc(C(=O)N2CCC([C@@H](N)c3cc(Cl)c(Cl)cc3O)CC2)ccc1=O` [Compound 232, 5-[4-[(R)-amino(4,5-dichloro-2-hydroxyphenyl)methyl]piperidine-1-carbonyl]-1-methylpyridin-2-one], the concentration for half-maximal inhibition (IC50) in experiment [1] is over 30 µM; in experiment [2], under 0.5 µM.
For `Cc1cc(O)c([C@H](N)C2CCN(C(=O)[C@@H]3CCNC3)CC2)cc1Cl` [Compound 237, (4-((R)-amino(5-chloro-2-hydroxy-4-methylphenyl)methyl)piperidin-1-yl)((R)-pyrrolidin-3-yl)methanone trifluoroacetic acid] the same measures were over 30 µM and under 0.5 µM.
For `N[C@@H](c1c(O)cc(Cl)c(Cl)c1F)C1CCN(C(=O)c2ccc(=O)[nH]c2)CC1` [Compound 257, 5-[4-[(R)-amino(3,4-dichloro-2-fluoro-6-hydroxyphenyl)methyl]piperidine-1-carbonyl]-1H-pyridin-2-one Trifluoroacetic Acid] the same measures were over 30 µM and under 0.5 µM.
For `C[C@@](O)(CO)C(=O)N1CCC([C@@H](N)c2cc(Cl)c(Cl)cc2O)CC1` (single isomer, unassigned; isomer 1) [Compound 217] the same measures were over 30 µM and under 10 µM.
As for `COCC(=O)N1CCC([C@@H](N)c2cc(Cl)c(Cl)cc2O)CC1` [Compound 134, 1-[4-[(R)-amino(4,5-dichloro-2-hydroxyphenyl)methyl]piperidin-1-yl]-2-methoxyethan-1-one trifluoroacetic acid], the results for the IC50 in experiment [1] and in experiment [2] were under 30 µM and under 0.5 µM, respectively.
For `C[C@@H](O)[C@@H](N)C(=O)N1CCC([C@@H](N)c2cc(Cl)c(Cl)cc2O)CC1` [Compound 199, (2R,3R)-2-amino-1-[4-[(R)-amino(4,5-dichloro-2-hydroxyphenyl)methyl]piperidin-1-yl]-3-hydroxybutan-1-one trifluoroacetic acid], the IC50 in experiment [1] was over 30 µM; in experiment [2] it was under 0.5 µM.
With `N[C@@H](c1cc(Cl)c(C(F)(F)F)cc1O)C1CCN(C(=O)[C@H](O)CO)CC1` [Compound 284, (2R)-1-[4-[(R)-amino[5-chloro-2-hydroxy-4-(trifluoromethyl)phenyl]methyl]piperidin-1-yl]-2,3-dihydroxypropan-1-one], the concentration for half-maximal inhibition (IC50) is over 30 µM in experiment [1] and under 10 µM in experiment [2].
